Data reported in patent publication US12466821B2 (Novartis AG, priority 2018, dated 2025).
Like-named read-outs stand apart in the source and are kept apart here.

Tests used:
Type in all cases: cell-based
[1] = system: Luciferase-encoding HCMV, AD169 strain; assay: CMV Luciferase assay (cellular herpesvirus replication)
How it was run: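 Reporter HCMV AD169 with luciferase driven by late pp28 promoter, so signal requires viral DNA replication; NN-NHDF fibroblasts in 2% FBS medium, compound (0.0159–50 or 0.00318–10 μM, 0.5% DMSO) added 1 h before infection at MOI 1. Luminescence read 72 hpi; EC50 from 4-parameter fit of control-normalized %.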

[2] = system: KOS strain of HSV-1 virus; assay: HSV-1 qPCR assay (cellular herpesvirus replication); details: Human alphaherpesvirus 1; NN-NHDF cells, qPCR after 24 hrs; n>3, value (+/- spread)
Protocol: (§1) For all viral assays, 10 mM DMSO stock compound solutions were serially diluted in DMSO at 3.16 fold dilutions in 96-well clear round bottom plates. Compounds were then diluted in assay media at 1:20 and subsequently 10 μL of these dilutions were added to cells for final compound concentrations ranging either from 0.0159 μM to 50 μM in 0.5% DMSO/assay media, or from 0.00318 to 10 μM in 0.5% DMSO/assay media.
HSV-1 qPCR assay: The assay uses KOS strain of HSV-1 virus (ATCC cat #VR-1493). Viral replication in the presence or absence of compounds was measured by qPCR according to the following procedure: NN-NHDF cells were plated at 9,000 cells/well in 96-well white-wall clear bottom plates in 80 μL/well of assay media (same as CMV) and left at room temperature in laminar flow hood for 20 mins followed by incubation at 37° C. […]
qPCR reactions were carried out in a total reaction volume of 20 μL, using the QuantiFast® Multiplex PCR kit (Qiagen cat #204656). Eighteen μL of qPCR master mix (10 μL of 2× QuantiFast® Multiplex PCR Master Mix, 1 μL of 20× Primer/Probe Mix specific to housekeeping gene, 1 μL of 20× Primer/Probe Mix specific to viral gene, 6 μL of H2O) was distributed into each well of a 384 well plate. […]
(§2) Relative quantification was calculated with the ΔΔCT Method, and then converted into percent inhibitions. […] EC50 values were calculated using XLFit Dose Response One Site Model 205.

[3] = system: VZV Ellen strain; assay: VZV qPCR assay (cellular herpesvirus replication); details: Human alphaherpesvirus 3, MRC5, 48 h; MRC-5 cells, qPCR after two days; n>3, value (+/- spread)
Protocol: as §1
VZV qPCR assay: The assay uses co-infection with VZV Ellen strain-infected MRC-5 cells (ATCC cat #VR-1367). Viral replication in the presence or absence of compounds was measured by qPCR according to the following procedure: 12,000 uninfected MRC-5 cells were mixed with VZV-infected MRC-5 cells at a ratio of 1 to 10 infected to uninfected cells, in 96-well white-wall clear bottom plates in 90 μL/well of assay media: 4% FBS in EMEM (ATCC cat #30-2003). […] The chosen ratio of infected to uninfected cells gave approximately 3% VZV-positive cells at 6 hours post co-culturing, as detected by immunofluorescent staining of VZV Immediate Early 62 gene. […]
qPCR reactions were carried out in a total reaction volume of 20 μL, using the QuantiFast® Multiplex PCR kit (Qiagen cat #204656). […]
as §2

N#Cc1ccc(CNC(=O)c2ccc3n(c2=O)CCN(CC2(S(=O)(=O)C4CC4)CC2)C3=O)cc1 [Example 1, N-(4-cyanobenzyl)-2-((1-(cyclopropylsulfonyl)cyclopropyl)methyl)-1,6-dioxo-2,3,4,6-tetrahydro-1H-pyrido[1,2-a]pyrazine-7-carboxamide]
EC50 ([1]; Human betaherpesvirus 5, AD169, read-out: CMV-Luc Cellular EC50): 0.0232 µM
EC50 ([1]; Human betaherpesvirus 5, AD169, read-out: EC50 Human herpesvirus CMV): 0.024 µM
EC50 [2]: 0.032 µM
EC50 [3]: 0.02 µM
